Data published in patent publication US8303964B2, “Viable non-toxic gram-negative bacteria” (priority 2006, dated 2012).
Values after ≈ are worked out from the molar mass of the structure shown. Read-outs that look alike come from different tables or passages of the source. Bridge positions count the residues as written; N and C are the ends. Square brackets hold non-standard residues; d marks the D form. Peptide text beside a SMILES is read from it. * marks the point of attachment. Ileψ(thiazoline)Cys = CC[C@H](C)[C@H](N)C1=N[C@H](C(=O)*)CS1; dOrn = NCCC[C@@H](N)C(=O)O

Columns and labels:
KPM22 = assay: microbe, parasite or virus in culture; assay type: cell-based, E. coli; conditions: for MIC: Escherichia coli, read-out: Minimum Inhibitory Concentration KPM22
Description: (§1) The antibiotics used were from Sigma with the exception of cephaloridine, which was obtained from MicroSource Discovery Systems. Antibiotics were chosen based on their varying mode of action and entry into the cell. […] Colonies from LB agar plate were scraped and suspended in media (˜10^4 cells per mL) with varying concentrations of antibiotics. Cultures were incubated with shaking (˜200 rpm) at 37° C. for 18 hours at which point growth was scored by visual inspection.

BW30270 = assay: microbe, parasite or virus in culture; assay type: cell-based, E. coli K-12; conditions: LB media, 37° C., 18 hours, lowest concentration that completely inhibited growth; for MIC: Escherichia coli, read-out: Minimum Inhibitory Concentration BW30270
Description: as §1

gutQ = gutQ (Escherichia coli, UniProt P17115); conditions: for alternate substrate, product appearance: determined by 31P-NMR
Description: This example describes enzyme assays used in experiments conducted during the course of the present invention. […] All plates contained internal Ru5P standards and appropriate A5P controls in triplicate. One unit of enzyme activity is defined as the conversion of 1 μmol of sugar phosphate per minute at 37° C.
This example describes the characterization of gutQ. […] After 10 minutes at 37° C., reactions containing the potential alternate substrates D-arabinose, D-ribose 5-phosphate, D-glucose 6-phosphate (G6P), D-glucose 1-phosphate, D-glucosamine 6-phosphate, or D-mannose 6-phosphate were quenched and the presence of ketose was determined. Product appearance for D/L-glyceraldehyde 3-phosphate, D-erythrose 4-phosphate, and D-fructose 6-phosphate was assayed by ^31P NMR. Kinetic constants were determined at 37° C. using the discontinuous microplate assay and were initiated by the addition of substrate. Concentrations typically ranged from 0.2Km to 10Km. […] Initial rates (v0) were determined in triplicate and fit to the standard Michaelis-Menten equation using nonlinear least-squares regression to determine Km and kcat values for both the formation and disappearance of Ru5P.

kdsD = kdsD (Escherichia coli, UniProt P45395); conditions: cited from earlier work; for kcat / Km: kdsD; for kcat: A5P to Ru5P or Ru5P to A5P, labelled by substrate
kdsD, sequence (P45395 whole entry): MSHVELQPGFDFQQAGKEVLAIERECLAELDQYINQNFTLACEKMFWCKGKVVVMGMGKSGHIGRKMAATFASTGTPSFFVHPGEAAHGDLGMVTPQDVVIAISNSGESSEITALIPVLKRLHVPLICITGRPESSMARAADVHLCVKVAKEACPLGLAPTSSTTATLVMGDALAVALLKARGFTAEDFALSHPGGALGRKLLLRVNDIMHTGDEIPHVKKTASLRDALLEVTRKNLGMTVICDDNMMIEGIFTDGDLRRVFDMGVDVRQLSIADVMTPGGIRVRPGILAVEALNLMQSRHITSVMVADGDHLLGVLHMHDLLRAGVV

[1] = substrate: O=C(CO)[C@H](O)[C@H](O)COP(=O)(O)O; assay: purified protein, by the assay type; conditions: other: gutQ, 37° C., pH 8.25
[2] = substrate: O=C[C@@H](O)[C@H](O)[C@H](O)COP(=O)(O)O; assay: purified protein, by the assay type; conditions: other: gutQ, 37° C., pH 8.25
[3] = LB media, 37° C., 18 hours, lowest concentration that completely inhibited growth

## CC1(C)S[C@@H]2[C@H](NC(=O)[C@H](N)c3ccccc3)C(=O)N2[C@H]1C(=O)O [Ampicillin]
KPM22
  Fold Difference in MIC: 2 fold
KPM22; 18 h
  MIC: 2 µg/mL (≈ 5.72 µM)
BW30270
  MIC: 4 µg/mL (≈ 11.4 µM)

## O=CC(O)COP(=O)(O)O [D/L-glyceraldehyde 3-phosphate]
gutQ
  alternate substrate, product appearance: served as alternate substrates

## O=C(CO)[C@H](O)[C@H](O)COP(=O)(O)O [Ru5P, D-ribulose 5-phosphate]
kdsD
  kcat: 255 ± 16 s⁻¹
  Km: 350 ± 80 µM

## O=C(CO)[C@@H](O)[C@H](O)[C@H](O)COP(=O)(O)O [D-fructose 6-phosphate]
gutQ
  alternate substrate, product appearance: served as alternate substrates

## O=C(O)CN(CCN(CC(=O)O)CC(=O)O)CC(=O)O [EDTA]
kdsD
  Activation by EDTA: Yes
gutQ
  Activation by EDTA: Yes

## CO[C@@H]1[C@@H](OC(N)=O)[C@@H](O)[C@H](Oc2ccc3c(O)c(NC(=O)c4ccc(O)c(CC=C(C)C)c4)c(=O)oc3c2C)OC1(C)C [Novobiocin]
KPM22; [3]
  MIC: 1 µg/mL (≈ 1.63 µM)

## CC(=O)O[C@H]1C[C@@]2(C)[C@@H](C[C@@H](O)[C@H]3[C@@]4(C)CC[C@@H](O)[C@@H](C)[C@@H]4CC[C@@]32C)/C1=C(\CCC=C(C)C)C(=O)O [Fusidic Acid]
KPM22; [3]
  MIC: 2 µg/mL (≈ 3.87 µM)
KPM22; MIC BW30270 versus MIC KPM22
  Fold Difference in MIC: 256 fold
BW30270
  MIC: 512 µg/mL (≈ 991 µM)

## O=C(N[C@H](CO)[C@H](O)c1ccc([N+](=O)[O-])cc1)C(Cl)Cl [Chloramphenicol]
KPM22; [3]
  MIC: 2 µg/mL (≈ 6.19 µM)
BW30270
  MIC: 8 µg/mL (≈ 24.8 µM)

## CC[C@H]1OC(=O)[C@H](C)[C@@H](O[C@H]2C[C@@](C)(OC)[C@@H](O)[C@H](C)O2)[C@H](C)[C@@H](O[C@@H]2O[C@H](C)C[C@H](N(C)C)[C@H]2O)[C@](C)(O)C[C@@H](C)C(=O)[C@H](C)[C@@H](O)[C@]1(C)O [Erythromycin]
KPM22; [3]
  MIC: 1 µg/mL (≈ 1.36 µM)

## Polymyxin E
KPM22; [3]
  Minimum Inhibitory Concentration KPM22: 0.06 µg/mL
KPM22; MIC BW30270 versus MIC KPM22
  Fold Difference in MIC: ~4 fold
BW30270
  Minimum Inhibitory Concentration BW30270: 0.25 µg/mL

## O=C[C@H](O)[C@H](O)COP(=O)(O)O [D-erythrose 4-phosphate]
gutQ
  alternate substrate, product appearance: served as alternate substrates

## CC[C@H](C)[C@H](N)C1=N[C@H](C(=O)N[C@@H](CC(C)C)C(=O)N[C@H](CCC(=O)O)C(=O)N[C@H](C(=O)N[C@H]2CCCCNC(=O)[C@H](CC(N)=O)NC(=O)[C@@H](CC(=O)O)NC(=O)[C@H](Cc3cnc[nH]3)NC(=O)[C@@H](Cc3ccccc3)NC(=O)[C@H]([C@@H](C)CC)NC(=O)[C@@H](CCCN)NC2=O)[C@@H](C)CC)CS1 [Bacitracin] ({Ileψ(thiazoline)Cys}-L[dE]IK[dOrn]I[dF]H[dD]N; lactam 4-C)
KPM22; [3]
  Minimum Inhibitory Concentration KPM22: 512 µg/mL
KPM22; MIC BW30270 versus MIC KPM22
  Fold Difference in MIC: 8 fold
BW30270
  Minimum Inhibitory Concentration BW30270: 4096 µg/mL

## CO[C@H]1/C=C/O[C@@]2(C)Oc3c(C)c(O)c4c(O)c(c(/C=N/N5CCN(C)CC5)c(O)c4c3C2=O)NC(=O)/C(C)=C\C=C\[C@H](C)[C@H](O)[C@@H](C)[C@@H](O)[C@@H](C)[C@H](OC(C)=O)[C@@H]1C [Rifampin]
BW30270
  MIC: 16 µg/mL (≈ 19.4 µM)

## O=C(Cc1cccs1)N[C@@H]1C(=O)N2C(C(=O)[O-])=C(C[n+]3ccccc3)CS[C@H]12 [Cephaloridine]
KPM22; [3]
  MIC: 4 µg/mL (≈ 9.63 µM)
KPM22; MIC BW30270 versus MIC KPM22
  Fold Difference in MIC: 1 fold
BW30270
  MIC: 4 µg/mL (≈ 9.63 µM)

## CN[C@H](CC(C)C)C(=O)N[C@H]1C(=O)N[C@@H](CC(N)=O)C(=O)N[C@H]2C(=O)N[C@H]3C(=O)N[C@H](C(=O)N[C@H](C(=O)O)c4cc(O)cc(O)c4-c4cc3ccc4O)[C@H](O)c3ccc(c(Cl)c3)Oc3cc2cc(c3O[C@@H]2O[C@H](CO)[C@@H](O)[C@H](O)[C@H]2O[C@H]2C[C@](C)(N)[C@H](O)[C@H](C)O2)Oc2ccc(cc2Cl)[C@H]1O [Vancomycin]
KPM22; [3]
  MIC: 32 µg/mL (≈ 22.1 µM)
BW30270
  MIC: 256 µg/mL (≈ 177 µM)

## CCCCCCCCCCCCOS(=O)(=O)[O-].[Na+] [Sodium dodecyl sulfate (SDS), Sodium dodecyl sulfate]
KPM22; [3]
  MIC: 8 µg/mL
KPM22; MIC BW30270 versus MIC KPM22, listed as sodium dodecyl sulfate, sulfate
  Fold Difference in MIC: > 4000 fold
KPM22; MIC BW30270 versus MIC KPM22, sulfate
  Fold Difference in MIC: >4000 fold
BW30270
  MIC: > 32000 µg/mL

## O=C[C@@H](O)[C@H](O)[C@H](O)COP(=O)(O)O [A5P, d-arabinose 5-phosphate]
kdsD
  kcat: 157 ± 4 s⁻¹
  Km: 610 ± 60 µM

## [Zn+2] [Zn^2+]
kdsD
  Inhibition by 10 μM Zn^2+: Yes
gutQ
  Inhibition by 10 μM Zn^2+: Yes

## NC[C@H]1O[C@H](O[C@H]2[C@H](O)[C@@H](O[C@H]3O[C@H](CO)[C@@H](O)[C@H](N)[C@H]3O)[C@H](N)C[C@@H]2N)[C@H](O)[C@@H](O)[C@@H]1O [Kanamycin]
KPM22; [3]
  MIC: 1 µg/mL (≈ 2.06 µM)
KPM22; MIC BW30270 versus MIC KPM22
  Fold Difference in MIC: 16 fold
BW30270
  MIC: 16 µg/mL (≈ 33 µM)

B1: gutQ (Escherichia coli K-12) (protein)
chain: MSEALLNAGRQTLMLELQEASRLPERLGDDFVRAANIILHCEGKVVVSGIGKSGHIGKKIAATLASTGTPAFFVHPAEALHGDLGMIESRDVMLFISYSGGAKELDLIIPRLEDKSIALLAMTGKPTSPLGLAAKAVLDISVEREACPMHLAPTSSTVNTLMMGDALAMAVMQARGFNEEDFARSHPAGALGARLLNKVHHLMRRDDAIPQVALTASVMDAMLELSRTGLGLVAVCDAQQQVQGVFTDGDLRRWLVGGGALTTPVNEAMTVGGTTLQSQSRAIDAKEILMKRKITAAPVVDENGKLTGAINLQDFYQAGII
[1]
  Km: 640 ± 80 µM
  kcat: 242 ± 11 s⁻¹
[2]
  Km: 1200 ± 100 µM
  kcat: 218 ± 4 s⁻¹
